According to patent US9084422B2, “Anthranilamides compositions” (E I DU PONT DE NEMOURS AND COMPANY, priority 2001, dated 2015):

Tested on: tobacco budworm (Heliothis virescens)
Assay: Test H: soil systemic control of tobacco budworm on cotton
Format: in vivo
Conditions: soil treatment at 10 ppm
Method: For evaluating soil systemic control of tobacco budworm (Heliothis virescens), cotton plants were grown in sassafras soil in 15-cm pots in aluminum trays. When the plants reached square stage (bud formation on the plant) the plants were treated with the test compounds.
Test compounds were formulated in 0.25 mL of acetone and then diluted with water to provide solutions of 1, 5, 10 and 50 ppm. 10 mL of the treatment solutions were added to the pots weekly for four weeks, with four replicates of each treatment rate. One day after the second, third and fourth treatments, 35-50 first instar Heliothis virescens larvae were brushed on each plant with paintbrushes and placed on the terminal area, squares, and bolls. Five days after the last infestation with larvae the plants were rated for damage. Of the compounds tested, the following provided excellent levels of plant protection at 10 ppm (10% or less feeding damage): 16.

Cc1cc(Br)cc(C(=O)NC(C)C)c1NC(=O)c1cc(Br)nn1-c1ncccc1Cl [Compound 16]
protection of squares and bolls: no feeding or minimal sepal damage | feeding damage (excellent levels of plant protection) (10 mL weekly for four weeks, rated five days after last infestation): ≤ 10%
